# Tested on: Ramos
# Assay: Cytotoxicity against human Ramos B cells after 72 hrs by MTT assay
# Format: functional, cell-based
row,Compound,IC50
1,CCCCCCCCCC(=O)O[C@@]12C[C@@H](C)[C@]3(O)[C@@H](C=C(CO)C[C@@]4(O)C(=O)C(C)=C[C@@H]34)[C@@H]1C2(C)C,0.0051 µg/mL
2,CC(=O)O[C@@]12C[C@@H](C)[C@@]3(O)[C@@H](C=C(CO)C[C@]4(O)C(=O)C(C)=C[C@@H]34)[C@@H]1C2(C)C [PROSTRATIN],0.056 µg/mL
3,CC(=O)OCC1=C2[C@H]3O[C@]34CC[C@@H]3C(C)(C)CCC[C@@]3(C)[C@@H]4[C@H]3O[C@@]23OC1=O [17-ACETOXYJOLKINOLIDE B],0.023 µg/mL

# — ChEMBL document CHEMBL1157975, “Diterpenoids from the roots of Euphorbia fischeriana” (J Nat Prod, 2006)
